Values belong to the compound of their own block, whether it stands above or below them.
Test system: PIP tumor and PC3 tumor
Test: Biodistribution of 125I labeled compounds 17, 18, 26 and 27 in tumor bearing nude mice
Format: in vivo
Details: for Biodistribution: Bladder* / Biodistribution: Stomach* / Biodistribution: large intestine* / Biodistribution: small intestine*: organ with content; for PIP/blood / PIP/muscle: ratio; for Washout in PIP tumors, kidneys and spleen compared to [125I]18 and [125I]27 / Liver uptakes / Uptakes in PIP tumors, kidneys and spleen compared to [125I]17 and [125I]18: mouse, in vivo
Method: Radioiodination and Purification: 100 μg of either precursor 13, 14, 22 or 23 were dissolved in 100 μL EtOH; 22 μL Na^125I (1033-1118 μCi in 0.1 N NaOH), 100 μL 1N HCl and 100 μL 3% H2O2 were added. After 15 minutes at room temperature, the reaction was stopped by adding 150 μL sat. NaHSO3. The reaction mixture was slowly added to 1.5 mL sat. NaHCO3. Vial was rinsed with 1000 μL EtOH and mixture was diluted further to 10 mL mL water. The active sample was transferred onto an activated C4 mini column. The mixture was pushed through, washed twice with 3 mL water and the product was eluted with 1 mL ACN. Added 100 μL DMSO. The mixture was concentrated to ˜100 μL and purified by HPLC (Agilent Eclipse XCD C18 150×4.6 mm, 5 μm; 4 mL/min, gradient (ACN and water; 0-1 min (20/80), 1-16 min (20/80-100/0), 16-16.5 min (100/0-20/80), 16.5-20 min 20/80) (collected every minute). The sample was blown to dryness under argon, re-dissolved in 500 μL CH2Cl2 and 1 mL TFA was added at room temperature. After 1 hr the solution was blown to dryness and activity taken into 1 mL EtOH (10 μL saturated ascorbic acid/EtOH was added). Isolated activities for [^125I]17, 18, 26, and 27 were 197, 189, 600 and 197 μCi respectively. A representative picture of HPLC profiles (FIG. 3) for radiolabeled protected (intermediate), cold standard and radioactive trace of final compound is shown for [^125I]26.
For iv injection 150 μL of labeled solution was diluted with saline to 3.75 mL. Mice were injected with 2˜3 μCi of [^125I]18, 27, 26, and 18 in 0.15 mL saline. Injected radioactivity was 2 to 3 μCi.
Biodistribution study of [^125I]18, 27, 26, and 18 in tumor bearing nude mice were evaluated for their ability to localization of PSMA positive tumor (Tables 5, 6, 7 and 8). It was observed that [^125I]26 and [^125I] […] These new agents are valuable for radionuclide therapy, when labeled with beta or alpha-emitting isotopes; but these agents will also be useful as diagnostic agents when labeled with gamma-emitting isotopes.

- Biodistribution: Blood (1 h): 0.45 ± 0.11 % ID/g
- Biodistribution: Bone (1 h): 0.16 ± 0.02 % ID/g
- Biodistribution: Heart (1 h): 0.29 ± 0.04 % ID/g
- Biodistribution: Kidney (1 h): 41.44 ± 5.10 % ID/g
- Biodistribution: Liver (1 h): 2.94 ± 2.12 % ID/g
- Biodistribution: Lung (1 h): 1.15 ± 1.27 % ID/g
- Biodistribution: Muscle (1 h): 0.43 ± 0.24 % ID/g
- Biodistribution: PC3 tumor (1 h): 1.70 ± 1.33 % ID/g
- Biodistribution: PIP tumor (1 h): 10.72 ± 2.98 % ID/g
- Biodistribution: Pancreas (1 h): 0.55 ± 0.64 % ID/g
- Biodistribution: Skin (1 h): 0.57 ± 0.24 % ID/g
- Biodistribution: Spleen (1 h): 3.25 ± 1.52 % ID/g
- Biodistribution: gland (1 h): 0.81 ± 0.18 % ID/g
- Biodistribution: thyroid (1 h): 3.57 ± 0.75 % ID/g
- Biodistribution: Bladder* (1 h): 204.72 ± 108.11 % ID/g
- Biodistribution: Stomach* (1 h): 0.18 ± 0.05 % ID/g
- Biodistribution: large intestine* (1 h): 2.10 ± 1.64 % ID/g
- Biodistribution: small intestine* (1 h): 3.22 ± 1.64 % ID/g
- PIP/blood (1 h): 23.69 ± 2.07
- PIP/muscle (1 h): 27.52 ± 7.80
- Biodistribution: Blood (4 h): 0.09 ± 0.03 % ID/g
- Biodistribution: Bone (4 h): 0.03 ± 0.02 % ID/g
- Biodistribution: Heart (4 h): 0.11 ± 0.07 % ID/g
- Biodistribution: Kidney (4 h): 25.41 ± 7.57 % ID/g
- Biodistribution: Liver (4 h): 0.48 ± 0.53 % ID/g
- Biodistribution: Lung (4 h): 0.19 ± 0.13 % ID/g
- Biodistribution: Muscle (4 h): 0.25 ± 0.44 % ID/g
- Biodistribution: PC3 tumor (4 h): 0.28 ± 0.10 % ID/g
- Biodistribution: PIP tumor (4 h): 5.17 ± 2.02 % ID/g
- Biodistribution: Pancreas (4 h): 0.22 ± 0.25 % ID/g
- Biodistribution: Skin (4 h): 0.11 ± 0.04 % ID/g
- Biodistribution: Spleen (4 h): 0.46 ± 0.27 % ID/g
- Biodistribution: gland (4 h): 0.19 ± 0.05 % ID/g
- Biodistribution: thyroid (4 h): 7.16 ± 1.91 % ID/g
- Biodistribution: Bladder* (4 h): 68.75 ± 30.09 % ID/g
- Biodistribution: Stomach* (4 h): 0.11 ± 0.10 % ID/g
- Biodistribution: large intestine* (4 h): 0.86 ± 0.22 % ID/g
- Biodistribution: small intestine* (4 h): 0.23 ± 0.16 % ID/g
- PIP/blood (4 h): 62.95 ± 31.81
- PIP/muscle (4 h): 200.29 ± 221.74
- Washout in PIP tumors, kidneys and spleen compared to [125I]18 and [125I]27: significantly faster washout
SMILES: O=C(O)CC[C@H](NC(=O)N[C@@H](CCCCNC(=O)[C@H](Cc1ccccc1)NC(=O)[C@H](CCC(=O)O)NC(=O)c1ccc([125I])cc1)C(=O)O)C(=O)O [[^125I]17]

- Biodistribution: Blood (1 h): 0.47 ± 0.07 % ID/g
- Biodistribution: Bone (1 h): 0.94 ± 0.21 % ID/g
- Biodistribution: Heart (1 h): 2.60 ± 0.10 % ID/g
- Biodistribution: Kidney (1 h): 127.77 ± 8.24 % ID/g
- Biodistribution: Liver (1 h): 1.72 ± 0.11 % ID/g
- Biodistribution: Lung (1 h): 3.53 ± 1.35 % ID/g
- Biodistribution: Muscle (1 h): 1.05 ± 0.07 % ID/g
- Biodistribution: PC3 tumor (1 h): 1.99 ± 0.17 % ID/g
- Biodistribution: PIP tumor (1 h): 17.19 ± 3.74 % ID/g
- Biodistribution: Pancreas (1 h): 1.32 ± 0.46 % ID/g
- Biodistribution: Skin (1 h): 2.68 ± 0.47 % ID/g
- Biodistribution: Spleen (1 h): 12.25 ± 3.36 % ID/g
- Biodistribution: gland (1 h): 3.59 ± 1.03 % ID/g
- Biodistribution: thyroid (1 h): 39.72 ± 12.95 % ID/g
- Biodistribution: Bladder* (1 h): 53.39 ± 19.82 % ID/g
- Biodistribution: Stomach* (1 h): 0.55 ± 0.21 % ID/g
- Biodistribution: large intestine* (1 h): 1.13 ± 0.52 % ID/g
- Biodistribution: small intestine* (1 h): 1.52 ± 0.45 % ID/g
- PIP/blood (1 h): 36.90 ± 8.14
- PIP/muscle (1 h): 16.57 ± 4.28
- Biodistribution: Blood (4 h): 0.32 ± 0.12 % ID/g
- Biodistribution: Bone (4 h): 0.56 ± 0.05 % ID/g
- Biodistribution: Heart (4 h): 1.36 ± 0.33 % ID/g
- Biodistribution: Kidney (4 h): 138.08 ± 31.03 % ID/g
- Biodistribution: Liver (4 h): 1.28 ± 0.63 % ID/g
- Biodistribution: Lung (4 h): 1.86 ± 0.24 % ID/g
- Biodistribution: Muscle (4 h): 0.69 ± 0.21 % ID/g
- Biodistribution: PC3 tumor (4 h): 1.67 ± 0.44 % ID/g
- Biodistribution: PIP tumor (4 h): 17.36 ± 2.57 % ID/g
- Biodistribution: Pancreas (4 h): 1.07 ± 0.31 % ID/g
- Biodistribution: Skin (4 h): 2.03 ± 0.39 % ID/g
- Biodistribution: Spleen (4 h): 13.16 ± 4.01 % ID/g
- Biodistribution: gland (4 h): 3.57 ± 0.54 % ID/g
- Biodistribution: thyroid (4 h): 60.34 ± 22.28 % ID/g
- Biodistribution: Bladder* (4 h): 38.17 ± 21.99 % ID/g
- Biodistribution: Stomach* (4 h): 0.96 ± 0.55 % ID/g
- Biodistribution: large intestine* (4 h): 1.35 ± 0.48 % ID/g
- Biodistribution: small intestine* (4 h): 0.83 ± 0.34 % ID/g
- PIP/blood (4 h): 58.93 ± 20.54
- PIP/muscle (4 h): 27.34 ± 10.28
- Liver uptakes: low
- Uptakes in PIP tumors, kidneys and spleen compared to [125I]17 and [125I]18: higher uptakes
SMILES: O=C(O)CC[C@H](NC(=O)N[C@@H](CCCCNC(=O)[C@H](Cc1ccccc1)NC(=O)COc1ccc(C[C@H](NC(=O)[C@H](CCC(=O)O)NC(=O)[C@H](CCC(=O)O)NC(=O)c2ccc([125I])cc2)C(=O)O)cc1)C(=O)O)C(=O)O [[^125I]27]

- Biodistribution: Blood (1 h): 0.46 ± 0.22 % ID/g
- Biodistribution: Bone (1 h): 0.48 ± 0.11 % ID/g
- Biodistribution: Heart (1 h): 0.73 ± 0.20 % ID/g
- Biodistribution: Kidney (1 h): 174.61 ± 30.65 % ID/g
- Biodistribution: Liver (1 h): 4.61 ± 1.72 % ID/g
- Biodistribution: Lung (1 h): 3.08 ± 0.87 % ID/g
- Biodistribution: Muscle (1 h): 1.72 ± 0.54 % ID/g
- Biodistribution: PC3 tumor (1 h): 2.39 ± 1.42 % ID/g
- Biodistribution: PIP tumor (1 h): 26.19 ± 3.46 % ID/g
- Biodistribution: Pancreas (1 h): 0.98 ± 0.42 % ID/g
- Biodistribution: Skin (1 h): 2.33 ± 0.61 % ID/g
- Biodistribution: Spleen (1 h): 21.66 ± 2.63 % ID/g
- Biodistribution: gland (1 h): 6.97 ± 1.06 % ID/g
- Biodistribution: thyroid (1 h): 13.21 ± 8.48 % ID/g
- Biodistribution: Bladder* (1 h): 14.69 ± 3.80 % ID/g
- Biodistribution: Stomach* (1 h): 0.35 ± 0.11 % ID/g
- Biodistribution: large intestine* (1 h): 1.24 ± 0.79 % ID/g
- Biodistribution: small intestine* (1 h): 1.08 ± 0.63 % ID/g
- PIP/blood (1 h): 66.04 ± 29.31
- PIP/muscle (1 h): 16.02 ± 3.85
- Biodistribution: Blood (4 h): 0.21 ± 0.21 % ID/g
- Biodistribution: Bone (4 h): 0.25 ± 0.06 % ID/g
- Biodistribution: Heart (4 h): 0.38 ± 0.23 % ID/g
- Biodistribution: Kidney (4 h): 114.69 ± 32.67 % ID/g
- Biodistribution: Liver (4 h): 4.90 ± 1.80 % ID/g
- Biodistribution: Lung (4 h): 2.08 ± 0.67 % ID/g
- Biodistribution: Muscle (4 h): 0.30 ± 0.19 % ID/g
- Biodistribution: PC3 tumor (4 h): 1.37 ± 0.45 % ID/g
- Biodistribution: PIP tumor (4 h): 14.32 ± 3.87 % ID/g
- Biodistribution: Pancreas (4 h): 0.52 ± 0.26 % ID/g
- Biodistribution: Skin (4 h): 1.67 ± 1.30 % ID/g
- Biodistribution: Spleen (4 h): 15.37 ± 3.26 % ID/g
- Biodistribution: gland (4 h): 2.03 ± 1.29 % ID/g
- Biodistribution: thyroid (4 h): 28.57 ± 10.04 % ID/g
- Biodistribution: Bladder* (4 h): 15.11 ± 4.09 % ID/g
- Biodistribution: Stomach* (4 h): 0.49 ± 0.27 % ID/g
- Biodistribution: large intestine* (4 h): 1.35 ± 0.47 % ID/g
- Biodistribution: small intestine* (4 h): 0.30 ± 0.11 % ID/g
- PIP/blood (4 h): 104.80 ± 62.05
- PIP/muscle (4 h): 60.91 ± 38.35
- Liver uptakes: low
- Uptakes in PIP tumors, kidneys and spleen compared to [125I]17 and [125I]18: higher uptakes
- Washout in PIP tumors, kidneys and spleen compared to [125I]18 and [125I]27: significantly faster washout
SMILES: O=C(O)CC[C@H](NC(=O)N[C@@H](CCCCNC(=O)[C@H](Cc1ccccc1)NC(=O)COc1ccc(C[C@H](NC(=O)[C@H](CCC(=O)O)NC(=O)c2ccc([125I])cc2)C(=O)O)cc1)C(=O)O)C(=O)O [[^125I]26]

Reference: patent US20220125959A1, “PROSTATE-SPECIFIC MEMBRANE ANTIGEN (PSMA) INHIBITORS AS DIAGNOSTIC AND RADIONUCLIDE THERAPEUTIC AGENTS” (FIVE ELEVEN PHARMA INC., priority 2019, published 2022)
